Measurements published in patent publication US20120263732A1, “CD40 ANTIBODY FORMULATION AND METHODS” (PFIZER INC., priority 2003, published 2012).

How the values were obtained:
[1] = test system: lymph node cells obtained from cancer patients; test: IFNγ producing cells by ELISPOT in lymph node cell cultures stimulated with tumor antigen; type: cell-based, human; conditions: antibody 1 μg/mL (6.7 nM); ELISPOT following restimulation
Description: Effects of a human anti-CD40 antibody (21.4.1) on lymph node cells obtained from cancer patients stimulated with autologous tumor cells was examined.
Lymph node cells and tumors were collected from patients with renal cell carcinoma, non-small cell lung cancer, transitional cell carcinoma of the bladder, colon cancer, prostate cancer, and head and neck cancer. The lymph node cells were placed into culture together with irradiated collagenase treated tumors (recovered from the same patient) in the presence or absence of 21.4.1 (1 μg/mL; 6.7 nM). Proliferation was assessed using ^3H-thymidine 96 hours later. The number of INFγ producing cells was assessed by ELISPOT, following restimulation.

[2] = test system: Fc receptors (FcR) on human peripheral blood leukocytes; test: 125I-antibody binding to Fc receptors on human leukocytes; conditions: 125I-labelled antibody; 4° C., sodium azide; 21.4.1: excess unlabeled human IgG2 competitor, n=5 donors
Procedure: (§1) The binding of an anti-CD40 antibody (21.4.1) to Fc receptors on human and cynomolgus leukocytes was examined.
(§2) The binding of 21.4.1 to Fc receptors (FcR) on human or cynomolgus peripheral blood leukocytes was determined by using ^125I-21.4.1 and a human IgG1 control mAb. Human leukocytes from normal donors or cynomolgus leukocytes were isolated from whole blood using plasma gel and washed thoroughly to allow dissociation of receptor-bound serum immunoglobulins. Centrifugation through a sucrose cushion was used to separate cell-bound and free antibodies. Studies were performed at 4° C. in the presence of sodium azide to prevent receptor internalization.
(§3) 21.4.1 was tested for specific binding to FcR by using excess unlabeled human IgG2 isotype matched antibody as a competitor. ^125I-21.4.1 specific binding to FcR on human leukocytes (n=5 donors) was −1.0±8.5%, and specific binding to FcR on cynomolgus leukocytes (n=4) was 15±13%. […] The specific binding of the IgG1 control antibody to FcR on human and cynomolgus leukocytes accounted for 56% and 51% of the total bound radioactivity, respectively.

[3] = test system: Fc receptors (FcR) on cynomolgus peripheral blood leukocytes; test: 125I-antibody binding to Fc receptors on cynomolgus leukocytes; conditions: 125I-labelled antibody; 4° C., sodium azide; 21.4.1: excess unlabeled human IgG2 competitor, n=4
Procedure: as §1, §2, §3

[4] = target: T1, CD40 receptors on human leukocytes (Homo sapiens, UniProt P25942); test: 125I-21.4.1 binding to CD40 receptors on human leukocytes; conditions: 500-fold excess unlabeled 21.4.1; total % specific binding minus % binding to FcR
T1 construct: Human leukocytes from normal donors or cynomolgus leukocytes were isolated from whole blood; endogenous in cells; host or cells: human peripheral blood leukocytes from normal donors
Procedure: as §2, §3

[5] = test system: CD40 receptors on cynomolgus leukocytes; test: 125I-21.4.1 binding to CD40 receptors on cynomolgus leukocytes; conditions: 500-fold excess unlabeled 21.4.1; total % specific binding minus % binding to FcR
Procedure: as §2, §3

[6] = Primate anti-human antibody (PAHA) response; type: in vivo, cynomolgus monkeys; conditions: all monkeys in the 3, 5, and 10 mg/kg dose groups; 14 to 28 days following administration
Procedure: The observed dose-dependent clearance may be in part due to the binding of 21.4.1 to CD40 receptors that are widely expressed in normal tissues and the subsequent internalization and elimination of the antibody-receptor complex. Development of primate anti-human antibody (PAHA) response may also contribute to the accelerated clearance in some monkeys. PAHA was evaluated only after individual serum concentrations of 21.4.1 reached the lower limit of quantitation (LLOQ, 0.03 μg/mL) since the presence of 21.4.1 in test serum interferes with the assay for PAHA. Anti-21.4.1 antibodies were detected in all monkeys in the 3, 5, and 10 mg/kg dose groups at 14 to 28 days following administration of the antibody.

[7] = test system: CD40(−) erythroleukemic tumor, K562; test: CD40(−) K562 erythroleukemic tumor growth in SCID-beige mice; type: in vivo, human tumor in SCID-beige mice
Procedure: (§4) The effects of a CD40 antibody (21.4.1) on the growth of CD40(−) tumors (e.g., erythroleukemia and colon carcinoma) were examined. In particular, K562 tumors were chosen to assess the efficacy of 21.4.1 against a CD40(−) low immunogenic (class I and II negative) tumor.
(§5) SCID-beige mice were injected SC with the CD40(−) erythroleukemic tumor, K562 (ATCC CCL-243) alone or in the presence of human peripheral blood T cells and DCs. Animals received a single IP injection of 21.4.1 either at the time of tumor injection or 5 days later using various dose levels.

[8] = test system: CD40(−) colon carcinoma, Lovo; test: CD40(−) Lovo colon carcinoma growth in SCID-beige mice; type: in vivo, human tumor in SCID-beige mice; conditions: in the absence of immune cells
Procedure: as §4, §5
The amount of 21.4.1 to cause a 50% inhibition of tumor growth was 0.005 mg/kg corresponding to a Cmax serum concentration of 0.05 μg/mL. […] The results were identical when 21.4.1 was administered on Day 0 or Day +5 relative to tumor challenge. The growth of these CD40(−) tumors was not inhibited by 21.4.1 in the absence of immune cells.

[9] = test system: human breast tumor, BT 474; test: BT 474 breast tumor growth with human T cells and DC in SCID-beige mice; type: in vivo
Description: SCID-beige mice were challenged with the human breast tumor, BT 474 (ATCC HTB-20), SC, together with human peripheral blood T cells and DC. Animals received a single dose of 21.4.1 (IP) at the time of tumor injection.

breast tumor, BT 474 = test: Established BT 474 breast tumors: antibody and/or cisplatin; type: in vivo, human tumor in SCID-beige mice; conditions: single IP injection once tumors reached 200 mm^2; antibody 1 mg/kg, cisplatin 2.5 mg/kg; Day 84
Procedure: The therapeutic effects of an anti-CD40 antibody (21.4.1) in preventing the growth of human breast tumors alone and in the presence of cisplatin was examined.
SCID-beige mice were injected SC with the breast tumor, BT 474. The antibody (1 mg/kg, IP) and/or cisplatin (2.5 mg/kg, IP) were administered as a single injection once tumors reached a size of 200 mm^2. Tumor growth was measured on Day 84 after challenge.

[10] = mouse, in vivo
[11] = test system: unstimulated human whole blood; test: Whole-blood cytokine release assay
Procedure: An anti-CD40 antibody (21.4.1) was tested for its ability to induce the release of cytokines from unstimulated human whole blood using an in vitro whole blood assay which correlates with induction of antibody-mediated cytokine release in humans. 21.4.1 was tested at 1, 10 and 100 μg/mL, along with a murine anti-human CD3 IgG1 as a positive control that induces cytokine release through an Fc mediated pathway, and LPS as a second positive control that induces cytokines by stimulating macrophages. The donors used included individuals that responded to both the murine antibody and LPS (4 donors), as well as individuals who only responded to the LPS (3 donors). Heparinized whole blood was cultured with 21.4.1 for 5 hours and plasma was collected and analyzed for tumor necrosis factor alpha (TNF-α), interferon gamma (INF-γ) and interleukin-6 (IL-6) by ELISA (using commercially available kits). Cultures were also incubated for 48 hours and analyzed for interleukin-1 beta (IL-1β).

T1 sequence (P25942 21-277): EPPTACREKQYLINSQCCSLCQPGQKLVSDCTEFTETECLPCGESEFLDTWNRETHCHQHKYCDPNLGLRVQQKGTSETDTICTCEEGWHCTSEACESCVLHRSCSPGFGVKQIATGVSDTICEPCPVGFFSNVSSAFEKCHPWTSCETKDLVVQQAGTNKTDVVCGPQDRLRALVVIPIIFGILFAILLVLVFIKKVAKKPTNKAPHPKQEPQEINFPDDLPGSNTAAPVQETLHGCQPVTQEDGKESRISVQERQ

21.4.1: human agonist anti-CD40 antibody; amino acid sequences SEQ ID NOs:5-8; hybridoma deposit PTA-3605
number of IFNγ+ positive T cells [1]: enhanced | specific binding to FcR on human leukocytes [2]: −1.0±8.5% | specific binding to FcR on cynomolgus leukocytes [3]: 15±13% | specific binding to CD40 receptors on human leukocytes [4]: 49% | specific binding to CD40 receptors on cynomolgus leukocytes [5]: 67% | anti-21.4.1 antibodies (PAHA) [6]: detected | amount to cause a 50% inhibition of tumor growth (IC50) ([7]; K562 with human T cells and DC, single IP injection, Day 21): 0.005 mg/kg | growth of K562 tumor ([7]; in the absence of immune cells): not inhibited | growth of Lovo tumor [8]: not inhibited | amount necessary to cause a 50% reduction in tumor growth ([9]; BT 474 with human T cells and DC, single IP dose at tumor injection, Day 53): 0.005 mg/kg | growth of BT 474 cells ([9]; in the presence of immune cells, single injection): prevented the growth | tumor growth, single agent (breast tumor, BT 474): prevented tumor growth | T1/2 [10]: > 30 days | IL-6 in plasma ([11]; 100 μg/mL, only one donor, 5 hours): 90 pg/mL | cytokines in plasma of human blood ([11]; 1 or 10 μg/mL 21.4.1, ELISA): not detected | elevation of INFγ or IL-1β ([11]; any of the samples, 1, 10 and 100 μg/mL): no elevation | induction of TNF-α or IL-6 on re-test ([11]; same donor re-tested subsequently): no detectable induction
